# Laboratory results from patent publication US11098055B2, “Ester ACC inhibitors and uses thereof” (Gilead Apollo, LLC, priority 2015, dated 2021).
# Read-outs that look alike come from different tables or passages of the source.
# Legend:
# fACC2 = fACC2 (UniProt Q00955); assay: In vitro ACC2 inhibition assay (ADP-Glo), fungal ACC2; type: biochemical
# Protocol: An exemplary procedure for the in vitro ACC inhibition assay, which can be used to determine the inhibitory action of compounds of the invention toward either human (hACC2) or fungal (fACC2) ACC2, follows. The ADP-Glo™ Kinase Assay kit from Promega was used. The ADP-Glo™ Kinase Assay is a luminescent ADP detection assay to measure enzymatic activity by quantifying the amount of ADP produced during an enzyme reaction. The assay is performed in two steps; first, after the enzyme reaction, an equal volume of ADP-Glo™ Reagent is added to terminate the reaction and deplete the remaining ATP. Second, the Kinase Detection Reagent is added to simultaneously convert ADP to ATP and allow the newly synthesized ATP to be measured using a luciferase/luciferin reaction. Luminescence can be correlated to ADP concentrations by using an ATP-to-ADP conversion curve. The detailed procedure is as follows. 50 μL of the compound being tested (600 μM in DMSO) was added to a 384-well dilution plate. The compound was diluted 1:3 in succession in DMSO for each row for 11 wells. 0.5 μL ACC2 working solution was added to 384-well white Optiplate assay plate. 0.5 μL diluted compound solution in each column from step 2 was added to assay plate, each row containing 2 replicates. For the last 2 rows, 0.5 μL negative control (DMSO) was added in one row and 0.5 μL positive control (compound I-97) in the other. The plates were incubated at room temperature for 15 minutes. 5 μL substrate working solution was added to each well to initiate reaction. Final ACC2 reaction concentrations consist of: 5 nM ACC2, 20 μM ATP, 20 μM acetyl-CoA, 12 mM NaHCO3, 0.01% Brij35, 2 mM DTT, 5% DMSO, test compound concentrations: 30 μM, 10 μM, 3.33 μM, 1.11 μM, 0.37 μM, 0.123 μM, 0.0411 μM, 0.0137 μM, 0.00457 μM, 0.00152 μM, and 0.00051 μM. Plates were incubated at room temperature for 60 minutes. 10 μL ADP glo reagent was added. Plates were incubated at room temperature for 40 minutes. 20 μL kinase detection reagent was added. Plates were incubated at room temperature for 40 minutes, and then read on a Perkin Elmer EnVision 2104 plate reader for luminescence as Relative Light Units (RLU).
# Data for each concentration, as well as the positive and negative controls, were averaged, and the standard deviation calculated. Percent inhibition was calculated by the formula: 100×(average negative control−compound)/(average negative control−average positive control). The IC50 for each compound was calculated by fitting the data with a non-linear regression equation: Y=Bottom+(Top−Bottom)/(1+10^((Log IC50−X)*HillSlope)), where X is the log of compound concentration and Y is percent inhibition.
# Botrtyis cinerea (Bc) = assay: Growth inhibition assay of fungal pathogens; type: cell-based; details: 48 h, read-out: Concentration at 90% Inhibition Bc
# Protocol: (§1) Compounds of the present invention were evaluated in a growth inhibition assay to determine the ability to control the growth of fungal pathogens, such as Botrtyis cinerea (Bc), Collectotrichum graminicola (Cg), Diplodia maydis (Dm), Fusarium moniliforme (Fm), Fusarium virguhforme (Fv), Phytophthora capsici (Pc), Rhizoctonia solani (Rs), and Septoria tritici (St). Compounds to be tested were dissolved in DMSO at 2.5 mg/ml to produce compound stock solutions (“stocks”). Stocks were diluted with DMSO by a five-fold dilution in a 96-well stock plate, and two sets of final concentrations of 50, 10, and 2 ppm or 2, 0.4, and 0.08 ppm were obtained in vitro. A set of positive controls was also prepared, with various concentrations of Soraphen (2, 0.4, and 0.08 ppm), Metalaxyl (1.1, 0.22, and 0.04 ppm), and Metconazole (2, 0.4, and 0.08 ppm or 0.2, 0.04, and 0.008 ppm) after the five-fold dilutions. Negative controls on each plate included 2% DMSO, water, and a blank (media+2% DMSO). Fungal spores were isolated from previously sub-cultured plates of Botrtyis cinerea (Bc), Collectotrichum graminicola (Cg), Diplodia maydis (Dm), Fusarium moniliforme (Fm), Fusarium virguliforme (Fv), Phytophthora capsici (Pc), and Septoria tritici (St). The isolated spores were diluted to individual concentrations with a 17% V8 liquid media. For Rhizoctonia solani (Rs) and Pythium irregulare, 1.5 mm mycelial plugs were used in place of spores and ¼ Potato Dextrose Broth (PDB) was used for dilution. The spore concentrations and plug sizes were based on growth curves generated at 48 hours for each pathogen. In a second 96-well plate, the spores or mycelial plugs, media, diluted compound solutions, and controls were combined. Once the compound was added, a true final concentration of compound in each well was measured by an OD600 reading, which adjusted for any compound precipitation that might have occurred in the well. Plate readings were repeated at both 24 and 48 hours. The blank negative control was used as a background subtraction. Additional visual ratings were performed at both 24 and 48 hours for checking on precipitation and confirming efficacy. Visual and OD600 ratings of the compounds at 48 hours were compared to the 2% DMSO negative control, and the percent of pathogen growth inhibition was determined based on those values.
# [1] = system: Collectotrichum graminicola (Cg); assay: Growth inhibition assay of fungal pathogens; type: cell-based; details: 48 h, read-out: Concentration at 90% Inhibition Cg
# Protocol: as §1
# Diplodia maydis (Dm) = assay: Growth inhibition assay of fungal pathogens; type: cell-based; details: Stenocarpella maydis, 48 h, read-out: Concentration at 90% Inhibition Dm
# Protocol: as §1
# [2] = system: Fusarium moniliforme (Fm); assay: Growth inhibition assay of fungal pathogens; type: cell-based; details: Fusarium verticillioides, 48 h, read-out: Concentration at 90% Inhibition Fm
# Protocol: as §1
# [3] = system: Fusarium virguliforme (Fv); assay: Growth inhibition assay of fungal pathogens; type: cell-based; details: 48 h, read-out: Concentration at 90% Inhibition Fv
# Protocol: as §1
# [4] = system: Phytophthora capsici (Pc); assay: Growth inhibition assay of fungal pathogens; type: cell-based; details: 48 h, read-out: Concentration at 90% Inhibition Pc
# Protocol: as §1
# Rhizoctonia solani (Rs) = assay: Growth inhibition assay of fungal pathogens; type: cell-based; details: 48 h, read-out: Concentration at 90% Inhibition Rs
# Protocol: as §1
# Septoria tritici (St) = assay: Growth inhibition assay of fungal pathogens; type: cell-based; details: Zymoseptoria tritici, 48 h, read-out: Concentration at 90% Inhibition St
# Protocol: as §1
# fACC2, sequence (Q00955 whole entry): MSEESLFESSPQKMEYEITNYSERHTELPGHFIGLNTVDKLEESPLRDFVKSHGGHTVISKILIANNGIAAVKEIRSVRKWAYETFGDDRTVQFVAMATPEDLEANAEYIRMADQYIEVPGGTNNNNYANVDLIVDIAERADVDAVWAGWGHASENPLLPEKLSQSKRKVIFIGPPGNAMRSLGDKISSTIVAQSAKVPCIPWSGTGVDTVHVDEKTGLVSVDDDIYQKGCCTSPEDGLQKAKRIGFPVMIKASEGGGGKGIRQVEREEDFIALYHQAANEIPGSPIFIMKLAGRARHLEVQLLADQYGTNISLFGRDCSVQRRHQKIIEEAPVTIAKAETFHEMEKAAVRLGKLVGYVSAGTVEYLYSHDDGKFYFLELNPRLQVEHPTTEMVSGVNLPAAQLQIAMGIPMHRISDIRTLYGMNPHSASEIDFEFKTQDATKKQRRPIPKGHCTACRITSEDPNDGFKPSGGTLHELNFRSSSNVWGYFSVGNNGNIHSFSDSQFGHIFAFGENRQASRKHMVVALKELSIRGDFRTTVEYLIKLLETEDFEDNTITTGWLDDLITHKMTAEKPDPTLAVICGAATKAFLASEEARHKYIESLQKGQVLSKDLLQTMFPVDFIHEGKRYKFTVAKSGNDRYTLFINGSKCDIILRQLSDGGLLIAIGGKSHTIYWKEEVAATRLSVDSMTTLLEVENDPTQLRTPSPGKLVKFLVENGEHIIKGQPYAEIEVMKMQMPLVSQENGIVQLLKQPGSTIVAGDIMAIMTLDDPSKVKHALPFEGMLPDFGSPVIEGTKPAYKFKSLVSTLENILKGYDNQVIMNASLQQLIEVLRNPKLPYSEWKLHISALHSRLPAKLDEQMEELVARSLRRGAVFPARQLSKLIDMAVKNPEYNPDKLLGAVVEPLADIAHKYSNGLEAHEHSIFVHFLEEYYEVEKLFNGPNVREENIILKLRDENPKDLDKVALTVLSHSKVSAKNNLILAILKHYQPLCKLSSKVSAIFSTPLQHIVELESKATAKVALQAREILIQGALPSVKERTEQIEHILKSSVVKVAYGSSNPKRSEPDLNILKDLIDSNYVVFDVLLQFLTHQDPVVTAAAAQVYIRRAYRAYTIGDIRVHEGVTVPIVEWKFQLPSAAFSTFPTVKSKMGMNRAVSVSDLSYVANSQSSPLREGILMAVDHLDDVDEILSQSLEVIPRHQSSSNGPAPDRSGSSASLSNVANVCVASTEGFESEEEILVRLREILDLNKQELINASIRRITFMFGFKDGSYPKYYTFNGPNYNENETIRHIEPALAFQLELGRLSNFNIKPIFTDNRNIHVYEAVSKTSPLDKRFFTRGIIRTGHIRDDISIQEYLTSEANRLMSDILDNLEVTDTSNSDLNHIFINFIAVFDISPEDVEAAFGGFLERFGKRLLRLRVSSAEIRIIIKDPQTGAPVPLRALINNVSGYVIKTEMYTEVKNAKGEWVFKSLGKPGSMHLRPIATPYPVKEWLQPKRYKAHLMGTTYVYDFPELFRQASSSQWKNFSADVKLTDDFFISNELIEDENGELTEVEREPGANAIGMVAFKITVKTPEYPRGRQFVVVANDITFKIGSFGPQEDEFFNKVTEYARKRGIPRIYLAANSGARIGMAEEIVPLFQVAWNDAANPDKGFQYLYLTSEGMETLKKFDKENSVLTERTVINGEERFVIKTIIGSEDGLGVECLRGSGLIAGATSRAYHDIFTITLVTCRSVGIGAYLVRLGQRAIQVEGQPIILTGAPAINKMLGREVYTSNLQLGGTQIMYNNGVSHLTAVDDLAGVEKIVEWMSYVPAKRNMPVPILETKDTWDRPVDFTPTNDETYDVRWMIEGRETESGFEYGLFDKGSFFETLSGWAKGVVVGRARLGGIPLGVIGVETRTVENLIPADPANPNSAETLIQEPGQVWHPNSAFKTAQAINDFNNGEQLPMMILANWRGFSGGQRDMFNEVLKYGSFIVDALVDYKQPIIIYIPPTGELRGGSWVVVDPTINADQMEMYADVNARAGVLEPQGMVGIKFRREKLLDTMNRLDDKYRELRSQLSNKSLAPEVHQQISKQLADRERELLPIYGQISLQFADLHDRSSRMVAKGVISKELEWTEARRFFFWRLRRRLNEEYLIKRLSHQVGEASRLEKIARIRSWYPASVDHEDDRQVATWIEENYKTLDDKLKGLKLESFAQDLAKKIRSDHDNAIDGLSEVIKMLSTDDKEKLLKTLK
SMILES,IC50 (fACC2; Table 2a) [nM],IC50 (fACC2; Table 2b (additional results)) [nM],IC90 (Botrtyis cinerea (Bc); Table 4a) [µg/mL],IC90 (Botrtyis cinerea (Bc); Table 4b) [µg/mL],IC90 ([1]; Table 4a) [µg/mL],IC90 ([1]; Table 4b) [µg/mL],IC90 (Diplodia maydis (Dm); Table 4a) [µg/mL],IC90 (Diplodia maydis (Dm); Table 4b) [µg/mL],IC90 ([2]; Table 4a) [µg/mL],IC90 ([2]; Table 4b) [µg/mL],IC90 ([3]; Table 4a) [µg/mL],IC90 ([3]; Table 4b) [µg/mL],IC90 ([4]; Table 4a) [µg/mL],IC90 ([4]; Table 4b) [µg/mL],IC90 (Rhizoctonia solani (Rs); Table 4a) [µg/mL],IC90 (Rhizoctonia solani (Rs); Table 4b) [µg/mL],IC90 (Septoria tritici (St); Table 4a) [µg/mL],IC90 (Septoria tritici (St); Table 4b) [µg/mL]
"CCOC(=O)c1sc2c(c1C)c(=O)n(C(C)(C)C(=O)N1CCCCC1)c(=O)n2C[C@H](OC1CCOCC1)c1ccccc1OC [Compound I-2, ethyl (R)-1-(2-(2-methoxyphenyl)-2-((tetrahydro-2H-pyran-4-yl)oxy)ethyl)-5-methyl-3-(2-methyl-1-oxo-1-(piperidin-1-yl)propan-2-yl)-2,4-dioxo-1,2,3,4-tetrahydrothieno[2,3-d]pyrimidine-6-carboxylate]",0.6 to 3,0.3 to 3,0.4,0.4,0.4,0.4,2,2,0.4,0.4,0.4,0.4,≥ 50,≥ 50,2,0.4,≥ 50,10
"CCNC(=O)[C@@H](C)n1c(=O)c2c(C)c(C(=O)OCC)sc2n(C[C@H](OCCC#N)c2cc(F)ccc2OC)c1=O [Compound I-41, ethyl 1-((R)-2-(2-cyanoethoxy)-2-(5-fluoro-2-methoxy-phenyl)ethyl)-3-((R)-1-(ethylamino)-1-oxopropan-2-yl)-5-methyl-2,4-dioxo-1,2,3,4-tetrahydrothieno[2,3-d]pyrimidine-6-carboxylate]",,0.3 to 3,,10,,10,,≥ 50,,2,,≥ 50,,≥ 50,,≥ 50,,≥ 50
"CCOC(=O)c1sc2c(c1C)c(=O)n(C(C)(C)C(N)=O)c(=O)n2C[C@H](OCCC#N)c1cc(F)ccc1OC [Compound I-14, (R)-ethyl 3-(1-amino-2-methyl-1-oxopropan-2-yl)-1-(2-(2-cyanoethoxy)-2-(5-fluoro-2-methoxyphenyl)ethyl)-5-methyl-2,4-dioxo-1,2,3,4-tetrahydro-thieno[2,3-d]pyrimidine-6-carboxylate]",0.6 to 3,0.3 to 3,2,2,≥ 50,≥ 50,≥ 50,≥ 50,0.4,0.4,≥ 50,10,≥ 50,≥ 50,≥ 50,10,≥ 50,≥ 50
"CCOC(=O)c1sc2c(c1C)c(=O)n(C(C)(C)C(=O)NC(C)C)c(=O)n2C[C@H](OCCC#N)c1cc(F)ccc1OC [Compound I-15, (R)-ethyl 1-(2-(2-cyanoethoxy)-2-(5-fluoro-2-methoxy-phenyl)ethyl)-3-(1-(isopropylamino)-2-methyl-1-oxopropan-2-yl)-5-methyl-2,4-dioxo-1,2,3,4-tetrahydrothieno[2,3-d]pyrimidine-6-carboxylate]",0.6 to 3,0.3 to 3,0.4,0.4,0.08,0.08,0.08,0.08,0.08,0.08,0.4,0.4,≥ 50,10,0.08,0.08,≥ 50,10
"CCOC(=O)c1sc2c(c1C)c(=O)n([C@@H](C)C(N)=O)c(=O)n2C[C@H](OCCC#N)c1cc(F)ccc1OC [Compound I-25, ethyl 3-((S)-1-amino-1-oxopropan-2-yl)-1-((R)-2-(2-cyanoethoxy)-2-(5-fluoro-2-methoxyphenyl)ethyl)-5-methyl-2,4-dioxo-1,2,3,4-tetrahydrothieno[2,3-d]pyrimidine-6-carboxylate]",,0.3 to 3,,≥ 50,,≥ 50,,≥ 50,,10,,≥ 50,,≥ 50,,0.4,,≥ 50
"CCNC(=O)C(C)(C)n1c(=O)c2c(C)c(C(=O)OCC)sc2n(C[C@H](OCCC#N)c2cc(F)ccc2OC)c1=O [Compound I-29, (R)-ethyl 1-(2-(2-cyanoethoxy)-2-(5-fluoro-2-methoxy-phenyl)ethyl)-3-(1-(ethylamino)-2-methyl-1-oxopropan-2-yl)-5-methyl-2,4-dioxo-1,2,3,4-tetrahydrothieno[2,3-d]pyrimidine-6-carboxylate]",,0.3 to 3,,2,,0.4,,0.4,,0.08,,2,,≥ 50,,0.08,,10
"CCOC(=O)c1sc2c(c1C)c(=O)n([C@H](C)C(=O)N(C)C(C)C)c(=O)n2C[C@H](OCCC#N)c1cc(F)ccc1OC [Compound I-27, ethyl 1-((R)-2-(2-cyanoethoxy)-2-(5-fluoro-2-methoxy-phenyl)ethyl)-3-((R)-1-(isopropyl(methyl)amino)-1-oxopropan-2-yl)-5-methyl-2,4-dioxo-1,2,3,4-tetrahydrothieno[2,3-d]pyrimidine-6-carboxylate]",,0.3 to 3,,2,,2,,2,,0.08,,0.4,,≥ 50,,2,,≥ 50
